Patent US6933320B2, “Combination comprising combretastatin and anticancer agents” (priority 2001, dated 2005)
Values joined by “and” are separate entries in the source; they are usually repeats but may differ in a detail not shown here. Identical values can stand only once. Like-named read-outs stand apart in the source and are kept apart here.

Legend:
MA13/C = assay type: in vivo
Protocol: This efficacy may be quantified, for example by the log10 cell kill, which is determined by the following formula: log10 cells killed=T-C(days)/3.32×Td in which T-C represents the time taken for the cells to grow, which is the mean time in days for the tumors of the treated group (T) to reach a predetermined value (1 g for example) and the tumors of the control group (C) to reach the same value, and Td represents the time in days needed for the volume of the tumors in the control group to double. (T. H. Corbett et al., Cancer, 40, 2660.2680 (1977); F. M. Schabel et al., Cancer Drug Development, Part B, Methods in Cancer Research, 17, 3-51, New York, Academic Press Inc. (1979)). A product is considered to be active if the log10 cell kill is greater than or equal to 0.7. A product is considered to be very active if the log10 cell kill is greater than 2.8.
(§1) The efficacy of the combinations on solid tumors were determined experimentally in the following manner:
(§2) The animals subjected to the experiment, generally mice, were subcutaneously grafted bilaterally with 30 to 60 mg of a tumor fragment on day 0. The animals bearing tumors were mixed before being subjected to the various treatments and controls. In the case of treatment of advanced tumors, tumors were allowed to develop to the desired size, and animals having insufficiently developed tumors were eliminated. The selected animals were distributed at random to undergo the treatments and controls. Animals not bearing tumors were also subjected to the same treatments as the tumor-bearing animals in order to be able to dissociate the toxic effect from the specific effect on the tumor. Chemotherapy generally began from 3 to 22 days after grafting, depending on the type of tumor, and the animals were observed every day. The different animal groups were weighed 3 or 4 times a week until the maximum weight loss was attained, and the groups were then weighed at least once a week until the end of the trial.
(§3) The tumors were measured 2 or 3 times a week until the tumor reached approximately 2 g, or until the animal died if this occurred before the tumor reached 2 g. The animals were autopsied when sacrificed.
(§4) The antitumor activity was determined in accordance with different parameters which were recorded such as dose (mg/kg), mode of administration, time of administration, cytotoxicity, toxicity and log cell kill.
In this and the following examples, RPR 258062A corresponds to the hydrochloride salt of compound IIa. The agents were administered intravenously unless otherwise specified.

C51 = experiment: In vivo evaluation on subcutaneously grafted solid tumor C51
Protocol: A product is considered to be active if the log10 cell kill is greater than or equal to 0.7. A product is considered to be very active if the log10 cell kill is greater than 2.8.
as §1
as §2, with “Animals not bearing tumors were also subjected to the same treatments as the tumor-bearing animals in order to be able to dissociate the toxic effect from the specific effect on the tumor. Chemotherapy generally began from 3 to 22 days after grafting, depending on the type of tumor, and the animals were observed every day.” left out
as §3, §4
The agents were administered intravenously unless otherwise specified.

[1] = Solubility in water (statement); assay type: physicochemical; details: statement in words, no method given
[2] = MA13/C tumor, single agent at HNTD, i.v., schedule days 15, 25 (vinorelbine study)
[3] = MA13/C tumor, single agent at HNTD, i.v., schedule days 15, 22 (doxorubicin study)
[4] = MA13/C tumor, sequential combination RPR 258062A 1st 75 mg/kg day 14 + vinorelbine 2nd 32 mg/kg days 15, 25, i.v.
[5] = MA13/C tumor, single agent at HNTD, i.v., docetaxel days 17, 24 (* evaluated on mice that developed tumor), RPR 258062A days 17, 24 (2x/d)
[6] = MA13/C tumor, single agent at HNTD, i.v., docetaxel days 17, 24, RPR 258062A days 17, 24 (2x/d)
[7] = sequential combination RPR 258062A 58 mg/kg day 14 + CDDP 10 mg/kg days 15, 19, i.v.
[8] = simultaneous combination RPR 258062A 1st 116 mg/kg days 12, 16 + CDDP 10 mg/kg days 12, 16, i.v.
[9] = single agent at HNTD, RPR 258062A i.v. days 13-17 (2x/d), CPT-11 oral days 14-17
[10] = single agent at HNTD, i.v., schedule days 12, 16
[11] = sequential combination CPT-11 oral 400 mg/kg days 13-16 + RPR 258062A 36 mg/kg day 17

SMILES: CCC1=C[C@@H]2CN(C1)Cc1c([nH]c3ccccc13)[C@@](C(=O)OC)(c1cc3c(cc1OC)N(C)[C@H]1[C@@](O)(C(=O)OC)[C@H](OC(C)=O)[C@]4(CC)C=CCN5CC[C@]31[C@@H]54)C2 [Vinorelbine, vinorelbine, reference compound]
- LcK (log cell kill) (MA13/C; [2]): 4.6
- RR CR (complete response) (MA13/C; [2]): 5/5
- RR PR (partial response) (MA13/C; [2]): 5/5
- T-C (tumor growth delay) (MA13/C; [2]): 45.5 days
- TFS (tumor free survivors) (MA13/C; [2]): 0/5
- HNTD Dose (highest nontoxic dose) (MA13/C; mouse, in vivo, iv): 19.8 mg/kg

SMILES: COc1cccc2c1C(=O)c1c(O)c3c(c(O)c1C2=O)C[C@@](O)(C(=O)CO)C[C@@H]3O[C@H]1C[C@H](N)[C@H](O)[C@H](C)O1 [Doxorubicin, doxorubicin, reference compound]
- LcK (log cell kill) (MA13/C; [3]): 4.5
- RR CR (complete response) (MA13/C; [3]): 4/6
- RR PR (partial response) (MA13/C; [3]): 4/6
- T-C (tumor growth delay) (MA13/C; [3]): 53.5 days
- TFS (tumor free survivors) (MA13/C; [3]): 0/6
- HNTD Dose (highest nontoxic dose) (MA13/C; mouse, in vivo, iv): 17.4 mg/kg

SMILES: COc1ccc(/C=C\c2cc(OC)c(OC)c(OC)c2)cc1NC(=O)C(N)CO (centres unmarked) [RPR 258062A]
- RR CR (complete response) (MA13/C; MA13/C tumor, sequential combination RPR 258062A 150 mg/kg days 16, 23 (2x/d) + docetaxel 109.6 mg/kg days 17, 24, i.v.): 6/6
- RR CR (complete response) (MA13/C; [4]): 5/5
- RR PR (partial response) (MA13/C; [4]): 5/5
- T-C (tumor growth delay) (MA13/C; [4]): 84.7 days
- HNTD Dose (highest nontoxic dose) (MA13/C; MA13/C tumor, sequential combination RPR 258062A 1st (day 14) + vinorelbine 2nd (days 15, 25), i.v., dose of each constituent): 75 mg/kg
- HNTD Dose (highest nontoxic dose) (MA13/C; MA13/C tumor, sequential combination RPR 258062A (days 15, 21) + doxorubicin (days 16, 22), i.v., dose of each constituent): 139.6 mg/kg
- HNTD Dose (highest nontoxic dose) (MA13/C; MA13/C tumor, sequential combination RPR 258062A (days 16, 23, 2x/d) + docetaxel (days 17, 24), i.v., dose of each constituent): 150 mg/kg
- LcK (log cell kill) (MA13/C; [3]): 1.3
- RR CR (complete response) (MA13/C; [3]): 0/6
- RR PR (partial response) (MA13/C; [3]): 0/6
- T-C (tumor growth delay) (MA13/C; [3]): 30.2 days
- TFS (tumor free survivors) (MA13/C; [3]): 0/6
- LcK (log cell kill) (MA13/C; [2]): 0.5
- RR CR (complete response) (MA13/C; [2]): 0/5
- RR PR (partial response) (MA13/C; [2]): 0/5
- T-C (tumor growth delay) (MA13/C; [2]): 5 days
- TFS (tumor free survivors) (MA13/C; [2]): 0/5
- LcK (log cell kill) (MA13/C; [5]): 1.3
- RR CR (complete response) (MA13/C; [6]): 1/6
- RR PR (partial response) (MA13/C; [6]): 1/6
- T-C (tumor growth delay) (MA13/C; [6]): 10.8 days
- TFS (tumor free survivors) (MA13/C; [6]): 0/6
- HNTD Dose (highest nontoxic dose) (MA13/C; MA13/C tumor, single agent, i.v., schedule days 15, 22 (doxorubicin study)): 186.0 mg/kg
- HNTD Dose (highest nontoxic dose) (MA13/C; MA13/C tumor, single agent, i.v., schedule days 15, 25 (vinorelbine study)): 150 mg/kg
- HNTD Dose (highest nontoxic dose) (MA13/C; MA13/C tumor, single agent, i.v., docetaxel days 17, 24, RPR 258062A days 17, 24 (2x/d)): 242 mg/kg
- RR CR (complete response) (MA13/C; mouse, in vivo): 7/7
- RR PR (partial response) (MA13/C; mouse, in vivo): 6/6 and 7/7
- T-C (tumor growth delay) (MA13/C; mouse, in vivo): 74.8 days and 80.6 days
- TFS (tumor free survivors) (MA13/C; mouse, in vivo): 2/5 and 4/6 and 2/7
- HNTD Dose (highest nontoxic dose) (C51; sequential combination CPT-11 oral (days 13-16) + RPR 258062A i.v. (day 17), dose of each constituent): 36 mg/kg
- LcK (log cell kill) (C51; [7]): 5.9
- RR CR (complete response) (C51; [7]): 5/5
- RR PR (partial response) (C51; [7]): 5/5
- T-C (tumor growth delay) (C51; [7]): 51 days
- TFS (tumor free survivors) (C51; [7]): 0/5
- HNTD Dose (highest nontoxic dose) (C51; sequential combination RPR 258062A (day 14) + CDDP (days 15, 19), i.v., dose of each constituent): 58 mg/kg
- RR CR (complete response) (C51; [8]): 6/6
- RR PR (partial response) (C51; [8]): 6/6
- TFS (tumor free survivors) (C51; [8]): 6/6
- HNTD Dose (highest nontoxic dose) (C51; simultaneous combination RPR 258062A 1st (days 12, 16) + CDDP (days 12, 16), i.v., dose of each constituent): 116 mg/kg
- LcK (log cell kill) (C51; [9]): 1.3
- RR CR (complete response) (C51; [9]): 0/5
- RR PR (partial response) (C51; [9]): 5/5
- T-C (tumor growth delay) (C51; [9]): 10.3 days
- TFS (tumor free survivors) (C51; [9]): 0/5
- LcK (log cell kill) (C51; [10]): 1.2
- RR CR (complete response) (C51; [10]): 0/6
- RR PR (partial response) (C51; [10]): 6/6
- T-C (tumor growth delay) (C51; [10]): 10 days
- TFS (tumor free survivors) (C51; [10]): 0/6
- HNTD Dose (highest nontoxic dose) (C51; single agent, RPR 258062A i.v. days 13-17 (2x/d), CPT-11 oral days 14-17): 116.5 mg/kg
- HNTD Dose (highest nontoxic dose) (C51; single agent, i.v., schedule days 12, 16): 116 mg/kg

SMILES: COc1ccc(/C=C\c2cc(OC)c(OC)c(OC)c2)cc1NC(=O)C(N)CO (centres unmarked) [IIa]
- Solubility in water [1]: soluble in water

SMILES: CCc1c2c(nc3ccc(OC(=O)N4CCC(N5CCCCC5)CC4)cc13)-c1cc3c(c(=O)n1C2)COC(=O)[C@]3(O)CC [CPT-11, reference compound]
- LcK (log cell kill) (C51; [11]): 1.9
- RR CR (complete response) (C51; [11]): 3/5
- RR PR (partial response) (C51; [11]): 5/5
- T-C (tumor growth delay) (C51; [11]): 15.1 days
- TFS (tumor free survivors) (C51; [11]): 0/5
- LcK (log cell kill) (C51; [9]): 1.1
- RR CR (complete response) (C51; [9]): 0/5
- RR PR (partial response) (C51; [9]): 0/5
- T-C (tumor growth delay) (C51; [9]): 8.7 days
- TFS (tumor free survivors) (C51; [9]): 0/5

SMILES: N.N.[Cl][Pt][Cl] [CDDP, cisplatinum, reference compound]
- LcK (log cell kill) (C51; [10]): 1.9
- RR CR (complete response) (C51; [10]): 0/6
- RR PR (partial response) (C51; [10]): 5/6
- T-C (tumor growth delay) (C51; [10]): 16.5 days
- TFS (tumor free survivors) (C51; [10]): 0/6

SMILES: CC(=O)O[C@@]12CO[C@@H]1C[C@H](O)[C@@]1(C)C(=O)[C@H](O)C3=C(C)[C@@H](OC(=O)[C@H](O)[C@@H](NC(=O)OC(C)(C)C)c4ccccc4)C[C@@](O)([C@@H](OC(=O)c4ccccc4)[C@H]21)C3(C)C [Docetaxel, docetaxel, reference compound]
- LcK (log cell kill) (MA13/C; [5]): 3.2*
- RR CR (complete response) (MA13/C; [6]): 4/6
- RR PR (partial response) (MA13/C; [6]): 6/6
- T-C (tumor growth delay) (MA13/C; [6]): 26.7 days
- TFS (tumor free survivors) (MA13/C; [6]): 3/6
- HNTD Dose (highest nontoxic dose) (MA13/C; mouse, in vivo, iv): 68 mg/kg
